Test results taken from patent US20100099681A1, “SUBSTITUTED 5-AMINOPYRAZOLES AND USE THEREOF” (BAYER SCHERING PHARMA AKTIENGESELLSCHAFT, priority 2008, published 2010).

What was measured:
Type in all cases: cell-based
[1] = biological target: T1, adenosine receptor subtype A1 (A1-Gα16 fusion construct) (Homo sapiens, UniProt P30542); test: Indirect determination of adenosine antagonism via gene expression (luciferase reporter), A1; conditions: CHO K1 cells, NFAT-TA-Luc reporter, inhibition of luciferase response to agonist 25 nM CPA
T1 construct: expressed in transfected cells; host or cells: CHO K1
T1 sequence (P30542 with tags, fused parts or gaps): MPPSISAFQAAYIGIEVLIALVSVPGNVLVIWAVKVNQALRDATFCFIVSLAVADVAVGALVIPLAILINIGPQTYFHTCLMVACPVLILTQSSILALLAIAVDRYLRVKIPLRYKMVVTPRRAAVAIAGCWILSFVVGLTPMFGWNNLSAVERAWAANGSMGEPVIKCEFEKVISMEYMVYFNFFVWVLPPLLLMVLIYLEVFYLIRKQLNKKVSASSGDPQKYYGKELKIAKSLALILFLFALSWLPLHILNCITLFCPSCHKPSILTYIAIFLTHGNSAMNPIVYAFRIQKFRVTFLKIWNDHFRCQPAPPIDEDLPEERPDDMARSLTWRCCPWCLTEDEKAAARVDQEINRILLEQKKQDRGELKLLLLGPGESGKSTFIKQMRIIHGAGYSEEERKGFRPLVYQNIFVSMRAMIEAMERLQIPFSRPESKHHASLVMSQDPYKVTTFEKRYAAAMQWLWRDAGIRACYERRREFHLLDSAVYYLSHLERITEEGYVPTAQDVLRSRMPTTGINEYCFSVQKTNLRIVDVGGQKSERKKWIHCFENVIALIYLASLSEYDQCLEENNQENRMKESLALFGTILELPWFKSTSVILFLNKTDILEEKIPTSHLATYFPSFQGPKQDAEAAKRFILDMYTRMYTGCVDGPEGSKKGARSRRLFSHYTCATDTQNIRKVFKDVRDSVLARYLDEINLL
Experimental: For determination of adenosine antagonism on the adenosine receptor subtype A1, once again CHO K1 cells are stably transfected, but this time with a Ca^2+-sensitive reporter construct (NFAT-TA-Luc; Clontech) and an A1-Gα16 fusion construct. This receptor chimera is, in contrast to the native A1 receptor (Gαi-coupling), coupled to phospholipase C. The luciferase is expressed here as a function of the cytosolic Ca^2+ concentration.
(§1) The permanent cell lines are cultured in DMEM/F12-Glutamax (Cat.No. 31331-028; Gibco) with 10% FCS (fetal calf serum) and various additives (10 ml/liter 1M HEPES (Cat.No. 15630; Gibco), 14 ml/liter MEM sodium pyruvate (Cat.No. 11360-039; Gibco) at 37° C. under 5% carbon dioxide, and split twice weekly.
(§2) For testing in the 384-well or 96-well plate format, the cells are sown at 2000 or 5000 cells/well in 25 or 50 μl/well test medium (OptiMEM-Glutamax with 2.5% activated-charcoal-treated FCS, Hyclone) and cultured at 37° C. under 5% carbon dioxide until substance testing. The A2a and A2b cells are sown, 24 h before substance testing, in OptiMEM with 2.5% activated-charcoal-treated FCS (Hyclone). The A1-Gα16 cells are sown, 48 h before substance testing, in OptiMEM-Glutamax with 2.5% activated-charcoal-treated FCS and additives. The substances are pipetted at a final concentration from 1×10^−5 M to 1×10^−11 M to the test cultures, with the DMSO content on the cells not exceeding 0.5%. NECA (5-N-ethyl-carboxamido-adenosine) at a final concentration of 30 nM, which roughly corresponds to the EC50 concentration, is used as agonist for the A2a and A2b cells. 25 nM CPA (N6-cyclopenty adenosine), which roughly corresponds to the EC7-5 concentration, is used as agonist for the A1-Ga16 cells. After adding the substances, the cell plates are incubated for 3-4 h at 37° C. under 5% carbon dioxide. Then 50 μl of a solution consisting to 50% of lysis reagent (Triton buffer, PAA Cat.No. T21-160) and to 50% of luciferase substrate solution (2.5 mM ATP, 0.5 mM luciferin, 0.1 mM coenzyme A, 10 mM Tricin, 1.35 mM magnesium sulfate, 15 mM DTT, pH 7.8) is added to the cells directly before measurement. The luciferase activity is detected with a luminescence reader. The IC50 values are determined, i.e. the concentrations at which the luciferase response, produced by the respective agonist, is inhibited to 50%. The IC50 values are calculated with the computer program GraphPad PRISM (Version 3.02). ZM241385, for the A2a and A2b cells, and DPCPX (1,3-dipropyl-8-cyclopentylxanthine), for the A1-Gα16 cells, are used as reference antagonist.

[2] = biological target: T2, adenosine receptor subtype A2a (Homo sapiens, UniProt P29274); test: Indirect determination of adenosine antagonism via gene expression (luciferase reporter), A2a; conditions: CHO K1 cells, CRE luciferase reporter; inhibition of luciferase response to agonist 30 nM NECA
T2 construct: expressed in transfected cells; host or cells: CHO K1
Excerpt: (§3) Cells of the permanent line CHO K1 (Chinese Hamster Ovary) are stably transfected with a reporter construct (CRE luciferase) and the cDNA for the adenosine receptor subtypes A2a or A2b. A2a or A2b receptors are coupled via Gαs proteins to adenylate cyclase. Through receptor activation, the adenylate cyclase is activated and therefore the cAMP level in the cell is increased. Via the reporter construct, a cAMP-dependent promoter, the change in the cAMP level is coupled to luciferase expression.
as §1, §2

[3] = biological target: T3, adenosine receptor subtype A2b (Homo sapiens, UniProt P29275); test: Indirect determination of adenosine antagonism via gene expression (luciferase reporter), A2b; conditions: CHO K1 cells, CRE luciferase reporter; inhibition of luciferase response to agonist 30 nM NECA
T3 construct: expressed in transfected cells; host or cells: CHO K1
T3 sequence (P29275 1-332): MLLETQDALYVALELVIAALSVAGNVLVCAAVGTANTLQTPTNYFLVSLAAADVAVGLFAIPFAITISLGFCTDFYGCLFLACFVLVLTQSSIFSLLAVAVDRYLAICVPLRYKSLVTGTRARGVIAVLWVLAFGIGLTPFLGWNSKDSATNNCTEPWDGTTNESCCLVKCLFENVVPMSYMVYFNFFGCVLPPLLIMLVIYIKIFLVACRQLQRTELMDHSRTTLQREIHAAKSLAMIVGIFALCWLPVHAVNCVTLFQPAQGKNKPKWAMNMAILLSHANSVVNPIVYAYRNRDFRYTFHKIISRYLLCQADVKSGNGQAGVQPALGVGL
Excerpt: as §3, §1, §2

T2 sequence (P29274 whole entry): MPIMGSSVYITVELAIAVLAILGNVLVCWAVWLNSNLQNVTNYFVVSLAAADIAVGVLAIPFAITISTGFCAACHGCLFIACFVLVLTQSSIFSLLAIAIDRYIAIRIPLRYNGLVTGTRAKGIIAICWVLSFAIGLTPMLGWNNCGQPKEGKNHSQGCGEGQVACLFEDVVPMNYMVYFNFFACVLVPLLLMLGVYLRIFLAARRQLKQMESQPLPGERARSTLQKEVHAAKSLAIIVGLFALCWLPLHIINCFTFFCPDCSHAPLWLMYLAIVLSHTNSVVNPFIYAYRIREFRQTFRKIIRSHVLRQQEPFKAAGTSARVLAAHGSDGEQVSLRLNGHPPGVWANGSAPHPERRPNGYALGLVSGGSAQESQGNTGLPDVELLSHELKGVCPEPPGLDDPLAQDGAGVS

| IC50 [1] [nM] | IC50 [2] [nM] | IC50 [3] [nM] | Structure (SMILES) |
| --- | --- | --- | --- |
| 99 | > 10000 | > 10000 | Cc1ccccc1-n1nc(C)c(-c2ccc3cccnc3c2)c1Nc1ccccc1C(=O)O [Example 27, 2-{[4-(Quinolin-7-yl)-3-methyl-1-(2-methylphenyl)-1H-pyrazol-5-yl]amino}benzoic acid] |
| 19 | – | – | Cc1ccccc1-n1nc(C)c(-c2ccc3ncc(N(C)C)nc3c2)c1Nc1ccccc1C(=O)O [Example 28, 2-({4-[3-(Dimethylamino)quinoxalin-6-yl]-3-methyl-1-(2-methylphenyl)-1H-pyrazol-5-yl}amino)benzoic acid] |
| 42 | – | – | Cc1ccccc1-n1nc(C)c(-c2cc3nccnc3c(F)c2OCCO)c1Nc1ccccc1C(=O)O [Example 31, 2-({4-[8-Fluoro-7-(2-hydroxyethoxy)quinoxalin-6-yl]-3-methyl-1-(2-methylphenyl)-1H-pyrazol-5-yl}amino)benzoic acid] |
| 78 | – | – | COc1ccnc2ccc(-c3c(C)nn(-c4ccccc4C)c3Nc3ccccc3C(=O)O)cc12 [Example 32, 2-{[4-(4-Methoxyquinolin-6-yl)-3-methyl-1-(2-methylphenyl)-1H-pyrazol-5-yl]amino}benzoic acid] |
| 0.6 | > 10000 | > 10000 | Cc1ccccc1-n1nc(C)c(-c2cc(F)c3nccnc3c2)c1Nc1ccccc1C(=O)O [Example 33, 2-{[4-(8-Fluoroquinoxalin-6-yl)-3-methyl-1-(2-methylphenyl)-1H-pyrazol-5-yl]amino}benzoic acid] |
| 0.7 | > 10000 | > 10000 | Cc1nn(-c2ccccc2)c(Nc2ccccc2C(=O)O)c1-c1cc2nccnc2c(F)c1F [Example 36, 2-{[4-(7,8-Difluoroquinoxalin-6-yl)-3-methyl-1-phenyl-1H-pyrazol-5-yl]amino}benzoic acid] |
| 1 | > 10000 | > 10000 | Cc1ccccc1-n1nc(C)c(-c2ccn3nc(N)nc3c2)c1Nc1ccccc1C(=O)O [Example 39, 2-{[4-(2-Amino [1,2,4]triazolo[1,5-a]pyridin-7-yl)-3-methyl-1-(2-methylphenyl)-1H-pyrazol-5-yl]amino}benzoic acid] |
| 23 | > 10000 | > 10000 | Cc1ccccc1-n1nc(C)c(-c2cc(F)c3cncnc3c2)c1Nc1ccccc1C(=O)O [Example 43, 2-{[4-(5-Fluoroquinazolin-7-yl)-3-methyl-1-(2-methylphenyl)-1H-pyrazol-5-yl]amino}benzoic acid] |
| 8.5 | > 10000 | > 10000 | Cc1nn(-c2ccc(F)cc2F)c(Nc2ccccc2C(=O)O)c1-c1cc(F)c2nccnc2c1 [Example 46, 2-{[1-(2,4-Difluorophenyl)-4-(8-fluoroquinoxalin-6-yl)-3-methyl-1H-pyrazol-5-yl]amino}benzoic acid] |

Further lines, the compound ahead of its results:

| Structure (SMILES) | IC50 [1] [nM] | IC50 [2] [nM] | IC50 [3] [nM] |
| --- | --- | --- | --- |
| Cc1ccccc1-n1nc(C)c(-c2ccc3nccnc3c2)c1Nc1ccc(Cl)cc1C(=O)O [Example 2, 2-{[4-(Quinoxalin-6-yl)-3-methyl-1-(2-methylphenyl)-1H-pyrazol-5-yl]amino}-5-chlorobenzoic acid] | 1 | > 10000 | > 10000 |
| Cc1ccccc1-n1nc(C(F)(F)F)c(-c2ccc3nccnc3c2)c1Nc1ccc(Cl)cc1C(=O)O [Example 6, 2-{[4-(Quinoxalin-6-yl)-1-(2-methylphenyl)-3-(trifluoromethyl)-1H-pyrazol-5-yl]amino}-5-chlorobenzoic acid] | 9.5 | > 10000 | > 10000 |
| COc1ccc(Nc2c(-c3ccc4[nH]ncc4c3)c(C)nn2-c2ccccc2C)c(C(=O)O)c1 [Example 9, 2-{[4-(1H-Indazol-5-yl)-3-methyl-1-(2-methylphenyl)-1H-pyrazol-5-yl]amino}-5-methoxybenzoic acid] | 11.2 | > 10000 | > 10000 |
| COc1ccc(Nc2c(-c3ccc4scnc4c3)c(C)nn2-c2ccccc2C)c(C(=O)O)c1 [Example 11, 2-{[4-(1,3-Benzothiazol-5-yl)-3-methyl-1-(2-methylphenyl)-1H-pyrazol-5-yl]amino}-5-methoxybenzoic acid] | 11.7 | > 10000 | > 10000 |
| CCc1ccc(Nc2c(-c3ccc4nccnc4c3)c(C)nn2-c2ccccc2C)c(C(=O)O)c1 [Example 13, 2-{[4-(Quinoxalin-6-yl)-3-methyl-1-(2-methylphenyl)-1H-pyrazol-5-yl]amino}-5-ethylbenzoic acid] | 1 | > 10000 | > 10000 |
| COc1ccc(Nc2c(-c3cc4nccnc4cc3F)c(C)nn2-c2ccccc2C)c(C(=O)O)c1 [Example 16, 2-{[4-(7-Fluoroquinoxalin-6-yl)-3-methyl-1-(2-methylphenyl)-1H-pyrazol-5-yl]amino}-5-methoxybenzoic acid] | 1.6 | > 10000 | > 10000 |
| COc1ccc(Nc2c(-c3ccc4ncnn4c3)c(C)nn2-c2ccccc2C)c(C(=O)O)c1 [Example 20, 5-Methoxy-2-{[3-methyl-1-(2-methylphenyl)-4-([1,2,4]triazolo[1,5-a]pyridin-6-yl)-1H-pyrazol-5-yl]amino}benzoic acid] | 1.9 | > 10000 | > 10000 |
| CCOc1ccccc1-n1nc(C)c(-c2ccc3nccnc3c2)c1Nc1ccc(OC)cc1C(=O)O [Example 22, 2-{[4-(Quinoxalin-6-yl)-1-(2-ethoxyphenyl)-3-methyl-1H-pyrazol-5-yl]amino}-5-methoxybenzoic acid] | 1 | > 10000 | > 10000 |
